In ChEMBL document CHEMBL1201862, “PubChem BioAssay data set” (2004):
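Cells were grown in 96-well plates and exposed to each compound for 48 hours at five concentrations; endpoints were interpolated linearly between bracketing concentrations, or set to the highest concentration if not reached. At the GI50, growth is halved.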 Active and inactive are the calls of the source. No stated cut-off is given here; in the data, active = GI50 up to about 1.1 µM and inactive = higher.

Columns and labels:
Assay in all cases: growth of human tumour cells (NCI), 48 h
[1] = tested on: LXFL 529
[2] = tested on: RXF 631
[3] = tested on: KM-20L2
[4] = tested on: M19-MEL
[5] = tested on: HOP-18
[6] = tested on: DMS-114
[7] = tested on: XF498
[8] = tested on: MDA-N
[9] = tested on: BT-549

SMILES	GI50 [1]	GI50 [2]	GI50 [3]	GI50 [4]	GI50 [5]	GI50 [6]	GI50 [7]	GI50 [8]	GI50 [9]
Cc1nc2ccc(N)cc2nc1O	> 100 µM (inactive)	> 100 µM (inactive)	> 100 µM (inactive)	> 100 µM (inactive)	–	–	–	–	–
CCOC(=O)C12C(C(=O)OC)=C(C)N(NC(=O)Nc3ccccc3)C1(N)N(NC(=O)Nc1ccccc1)C(C)=C2C(=O)OC (stereo not drawn)	26.1 µM (inactive)	–	20.5 µM (inactive)	18 µM (inactive)	32.9 µM (inactive)	31.9 µM (inactive)	24.3 µM (inactive)	–	–
COc1cccc2c1N[S@](=O)S2	35.3 µM (inactive)	> 100 µM (inactive)	> 100 µM (inactive)	35.6 µM (inactive)	–	–	50.8 µM (inactive)	–	–
COc1ccc(/C(Cl)=C(\C=O)c2ccc([N+](=O)[O-])cc2)cc1OC	3.23 µM (inactive)	12.4 µM (inactive)	12.2 µM (inactive)	11 µM (inactive)	10.5 µM (inactive)	5.78 µM (inactive)	7.4 µM (inactive)	3.25 µM (inactive)	–
CC(=O)OCC1(C)C(OC(C)=O)CCC2(C)C(CC(OC(C)=O)C3=CCOC3=O)C(O)(CO)CCC12 (stereo not drawn)	> 100 µM (inactive)	> 100 µM (inactive)	> 100 µM (inactive)	> 100 µM (inactive)	> 100 µM (inactive)	–	> 100 µM (inactive)	–	–
[O-][S+]1c2ccccc2N=C(c2cccs2)CC1c1ccccc1O (stereo not drawn)	> 100 µM (inactive)	> 100 µM (inactive)	> 100 µM (inactive)	> 100 µM (inactive)	–	37.2 µM (inactive)	32.1 µM (inactive)	–	–
CSC(=S)c1ccc(C(=S)SC)cc1	> 100 µM (inactive)	> 100 µM (inactive)	> 100 µM (inactive)	> 100 µM (inactive)	> 100 µM (inactive)	> 100 µM (inactive)	> 100 µM (inactive)	–	–
O=C1c2ccccc2C(=O)N1/N=C\c1ccc(Br)cc1	> 10 µM (inactive)	> 10 µM (inactive)	> 10 µM (inactive)	> 10 µM (inactive)	> 10 µM (inactive)	> 10 µM (inactive)	> 10 µM (inactive)	–	–
O=C(NCC(O)CNC(=O)C(F)(F)F)C(F)(F)F	> 100 µM (inactive)	–	> 100 µM (inactive)	> 100 µM (inactive)	> 100 µM (inactive)	> 100 µM (inactive)	> 100 µM (inactive)	–	–
CCC/N=C/c1c(O)c(O)c(C(C)C)c2cc(C)c(-c3c(C)cc4c(C(C)C)c(O)c(O)c(/C=N/CCC)c4c3O)c(O)c12	3.73 µM (inactive)	–	2.86 µM (inactive)	4.05 µM (inactive)	–	1.71 µM (inactive)	–	8.63 µM (inactive)	–
CC(C)N(C(=O)C12C3C4C5(C#N)C3C1(I)C5C42I)C(C)C (stereo not drawn)	> 71.6 µM (inactive)	–	> 66.7 µM (inactive)	> 58.2 µM (inactive)	97.5 µM (inactive)	> 42.5 µM (inactive)	> 100 µM (inactive)	–	–
CCCCn1c2ccccc2c2ccc3c(c21)C(=O)C=CC3=O	> 100 µM (inactive)	–	> 100 µM (inactive)	0.185 µM (active)	> 100 µM (inactive)	> 100 µM (inactive)	–	–	–
O=C(CCN1CCCCC1CO)Nc1ccc2c(c1)C(=O)c1ccc(NC(=O)CCN3CCCCC3CO)cc1C2=O (stereo not drawn)	2.34 µM (inactive)	–	25.6 µM (inactive)	15.8 µM (inactive)	–	14.1 µM (inactive)	–	–	–
CCCOC(=O)C1CCC(=O)N1C(=O)C(Cl)Cl (stereo not drawn)	> 100 µM (inactive)	–	> 100 µM (inactive)	> 100 µM (inactive)	> 100 µM (inactive)	> 100 µM (inactive)	> 100 µM (inactive)	–	–
Cc1ccc(-c2cc(=O)c3cc(C)c(C)c(C(=O)O)c3o2)cc1[N+](=O)[O-]	> 100 µM (inactive)	–	> 100 µM (inactive)	> 100 µM (inactive)	> 100 µM (inactive)	> 100 µM (inactive)	–	–	–
COC(=O)C1(C)CCc2c(OC)ccc(OC)c2C1=O (stereo not drawn)	> 100 µM (inactive)	> 100 µM (inactive)	–	> 100 µM (inactive)	–	> 100 µM (inactive)	> 100 µM (inactive)	–	–
Cn1c(N)nc(=O)c2c1N(C1OC(CO)C(O)C1O)CN2Cc1ccccc1 (stereo not drawn)	> 100 µM (inactive)	> 100 µM (inactive)	> 100 µM (inactive)	> 100 µM (inactive)	> 100 µM (inactive)	> 100 µM (inactive)	> 100 µM (inactive)	–	–
Cc1ccccc1/C=N/C12CC3CC(CC(C3)C1)C2	> 100 µM (inactive)	> 100 µM (inactive)	> 100 µM (inactive)	> 100 µM (inactive)	> 100 µM (inactive)	> 100 µM (inactive)	–	–	–
Cc1cc(Cl)ccc1N1C(=O)C(=O)C(c2nc3ccccc3s2)/C(=N\NC(=O)c2ccccc2O)C1=O (stereo not drawn)	> 100 µM (inactive)	> 100 µM (inactive)	> 100 µM (inactive)	> 100 µM (inactive)	> 100 µM (inactive)	> 100 µM (inactive)	–	–	–
O=C1C[C@@H]2[C@@H](CCC23CC3)N1	> 100 µM (inactive)	–	> 100 µM (inactive)	> 100 µM (inactive)	> 100 µM (inactive)	> 100 µM (inactive)	–	–	–
N#CN=C(NCc1ccccc1)NCc1ccccc1	> 92 µM (inactive)	–	> 100 µM (inactive)	> 54.7 µM (inactive)	> 100 µM (inactive)	> 38.3 µM (inactive)	> 77.1 µM (inactive)	–	–
O=C(CCN1CCCC1)CC(c1ccccc1)c1c(O)c2ccccc2oc1=O (stereo not drawn)	> 100 µM (inactive)	–	> 100 µM (inactive)	> 100 µM (inactive)	–	> 100 µM (inactive)	> 100 µM (inactive)	–	–
C#CC(=O)OCC#CCOC(=O)C#C	–	–	–	–	–	–	–	38.8 µM (inactive)	18.6 µM (inactive)

SMILES	GI50 [1]	GI50 [2]	GI50 [3]	GI50 [4]	GI50 [5]	GI50 [6]	GI50 [7]	GI50 [8]	GI50 [9]
C=CCn1c(=O)c(C(=O)NC(=O)OCC)cn(C2CCCCC2)c1=O	> 100 µM (inactive)	> 100 µM (inactive)	> 100 µM (inactive)	–	> 100 µM (inactive)	> 100 µM (inactive)	> 100 µM (inactive)	–	–
O=C(O)OC12CCCCCC1C(=O)C1CCCCC12 (stereo not drawn)	> 100 µM (inactive)	–	> 100 µM (inactive)	> 100 µM (inactive)	> 100 µM (inactive)	82 µM (inactive)	82.6 µM (inactive)	–	–
Cc1ccc(S(=O)(=O)NC(CCC(=O)NN)C(=O)NN)cc1 (stereo not drawn)	–	–	–	–	–	–	–	> 100 µM (inactive)	> 100 µM (inactive)
CC(=O)C1COC(O)C1C (stereo not drawn)	–	–	–	–	–	–	–	21.3 µM (inactive)	30 µM (inactive)
CCCCCCCCCCC(=O)CC(=O)c1c(O)cccc1O	36.3 µM (inactive)	47.3 µM (inactive)	50.2 µM (inactive)	25.8 µM (inactive)	18.9 µM (inactive)	26.1 µM (inactive)	19.5 µM (inactive)	–	–
c1c[nH]c(CN2CCOCC2)n1	–	–	–	–	–	–	–	> 100 µM (inactive)	> 100 µM (inactive)
O=C(O)CN1CCN2CCOCCOCCN(CC1)CCN(CC(=O)O)CC2	–	–	–	–	–	–	–	> 100 µM (inactive)	> 100 µM (inactive)
CN(C)CC(C)(C)C(=O)/C=C/c1ccc(/C=C/C(=O)C(C)(C)CN(C)C)cc1	1.17 µM (inactive)	2 µM (inactive)	1.04 µM (active)	1.66 µM (inactive)	–	1.3 µM (inactive)	1.22 µM (inactive)	–	–
Cc1nc2ccccc2n1CCc1nc2ccccc2s1	–	–	–	–	–	–	–	48.9 µM (inactive)	> 100 µM (inactive)
Oc1cc(O)c2c(c1)OC(c1ccc(O)c(O)c1)C(OC1(c3cc(O)c(O)c(O)c3)Oc3cc(O)cc(O)c3C(O)C1O)C2 (stereo not drawn)	–	–	–	–	–	–	–	20.3 µM (inactive)	26.8 µM (inactive)
CCCCCCCCCCCC(=O)Oc1c(Cl)cc(Cl)c(OC(=O)C(=O)Oc2c(Cl)cc(Cl)c(OC(=O)CCCCCCCCCCC)c2Cl)c1Cl	–	–	–	–	–	–	–	> 100 µM (inactive)	> 100 µM (inactive)
COC(=O)C(C(=O)C(=O)Nc1ccc([N+](=O)[O-])cc1[N+](=O)[O-])c1nc2ccc(Cl)cc2nc1O (stereo not drawn)	–	–	> 100 µM (inactive)	> 100 µM (inactive)	59.3 µM (inactive)	72.4 µM (inactive)	> 100 µM (inactive)	–	–
CSc1nc(SC)c2ncn(C3CC(Oc4ccc(C)cc4)C(COc4ccc(C)cc4)O3)c2n1 (stereo not drawn)	–	–	–	–	–	–	–	> 100 µM (inactive)	> 100 µM (inactive)
Cc1ccc(N2C(=O)CS/C2=C(\C#N)c2nc3ccccc3[nH]2)cc1	> 100 µM (inactive)	–	> 100 µM (inactive)	> 100 µM (inactive)	> 100 µM (inactive)	> 100 µM (inactive)	> 100 µM (inactive)	–	–
Cn1c2ccccc2c(=S)c2ccccc21	–	–	–	–	–	–	–	> 100 µM (inactive)	> 100 µM (inactive)
COCOc1cc(OC)ccc1C/C=N/O	–	–	–	–	–	–	–	> 100 µM (inactive)	> 100 µM (inactive)
Cc1ccc(/C=C2\CN(C)CC3C2=NN(c2ccccc2)C3c2ccc(C)cc2)cc1 (stereo not drawn)	–	–	–	–	–	–	–	> 100 µM (inactive)	> 100 µM (inactive)
COC(=O)C1=C([C@H]2COC(C)(C)O2)[C@H]2C[C@@H]1[C@@H]1OC(C)(C)O[C@@H]12	–	–	–	–	–	–	–	> 100 µM (inactive)	> 100 µM (inactive)
Nc1nc(NNc2ccccc2F)cc(=O)[nH]1	–	–	–	–	–	–	–	> 100 µM (inactive)	> 100 µM (inactive)
CCCCNC(=S)Nc1nc(C(=O)NNC(=S)Nc2ccccc2)cs1	–	–	–	–	–	–	–	> 100 µM (inactive)	> 100 µM (inactive)
Cc1nnc(CC#N)n1NC(=O)CC#N	–	–	–	–	–	–	–	> 100 µM (inactive)	> 100 µM (inactive)
CCN(CC)CCCNc1c2cc(OC)ccc2nc2cccc([N+](=O)[O-])c12	–	–	–	–	–	–	–	0.129 µM (active)	0.2 µM (active)
CC(C)=CCC[C@](C)(O[C@@H]1O[C@H](CO)[C@@H](O)[C@H](O)[C@H]1O)[C@H]1CC[C@]2(C)[C@@H]1[C@H](O)C[C@@H]1[C@@]3(C)CC[C@H](O)C(C)(C)[C@@H]3[C@@H](O[C@@H]3O[C@H](CO)[C@@H](O)[C@H](O)[C@H]3O[C@@H]3O[C@@H](C)[C@H](O)[C@@H](O)[C@H]3O)C[C@]12C.CC(C)=CCC[C@](C)(O[C@@H]1O[C@H](CO)[C@@H](O)[C@H](O)[C@H]1O)[C@H]1CC[C@]2(C)[C@@H]1[C@H](O)C[C@@H]1[C@@]3(C)CC[C@H](O)C(C)(C)[C@@H]3[C@@H](O[C@@H]3O[C@H](CO)[C@@H](O)[C@H](O)[C@H]3O[C@@H]3O[C@H](CO)[C@@H](O)[C@H](O)[C@H]3O)C[C@]12C	–	–	–	–	–	–	–	> 75 µM (inactive)	28.2 µM (inactive)
